pIC50: −log10 of the molar value.
Experiments:
KRAS G12C Ba/F3 cells = KRAS G12C Ba/F3 cells (Homo sapiens, UniProt P01116, G12C, cells depend on it); experiment: Ba/F3 proliferation assay, KRAS G12C; assay type: cell-based; conditions: 72 h, AlamarBlue, read-out: KRAS G12C Ba/F3 IC50
Method: (§1) To generate KRASG12-dependent Ba/F3 models, Ba/F3 cells are transduced with retroviruses containing vectors that harbor KRASG12 isoforms. Platinum-E cells (Cell Biolabs) are used for retrovirus packaging. Retrovirus is added to Ba/F3 cells. To ensure infection, 4 μg/mL polybrene is added and cells are spinfected. […] Cells with an infection efficiency of 10% to 20% are further cultivated and puromycin selection with 1 μg/mL is initiated. As a control, parental Ba/F3 cells are used to show selection status. Selection is considered successful when parental Ba/F3 cells cultures died. To evaluate the transforming potential of KRASG12 mutations, the growth medium is no longer supplemented with IL-3. Ba/F3 cells harboring the empty vector are used as a control. Approximately ten days before conducting the experiments, puromycin is left out.
(§2) All treatments are performed in technical duplicates. […] AlamarBlue™ (ThermoFisher), a viability stain, is added and fluorescence measured in the PerkinElmer Envision HTS Multilabel Reader. The raw data are imported into and analyzed with the Boehringer Ingelheim proprietary software MegaLab (curve fitting based on the program PRISM, GraphPad Inc.).

AsPC-1 cells = experiment: AsPC-1 CTG proliferation assay (120 h); assay type: cell-based; conditions: Homo sapiens, ASPC1, pancreatic cancer, G12D
Method: The CTG assay is designed to measure quantitatively the proliferation of AsPC-1 cells (ATCC […]), using the CellTiter Glow Assay Kit (Promega G7571). Cells are grown in RPMI medium (ATCC) supplemented with Fetal Calf Serum (Life Technologies, Gibco BRL, Cat. No. 10270-106). On “day 0” 2000 AsPC-1 cells are seeded in 60 μL RPMI ATCC+10% FCS+Penstrep in a 384-well plate, flat and clear bottom (Greiner, PNr. 781091). Cells are then incubated in the plates at 37° C. in a CO2 incubator overnight. On day 1, compounds (10 mM stock in DMSO) are added with the ECHO acoustic liquid handler system (Beckman Coulter), including DMSO controls. Plates are incubated for 120 h, and cell viability is measured using CellTiter-Glo luminescent cell viability reagent (Promega product code G7570). Viability (stated as percent of control) is defined as relative luminescence units RLU of each well divided by the RLU of cells in DMSO controls. IC50 values are determined from viability measurements by non-linear regression using a four-parameter model.

[1] = system: ERK phosphorylation in NCI-H358 (KRAS G12C); experiment: ERK phosphorylation assay (assay 1, NCI-H358); assay type: cell-based; conditions: Homo sapiens; NCI-H358, assay 1, 1 h incubation; read-out: IC50 H358 pERK
Method: Low IC50 values in this assay setting are indicative of high potency of the compounds according to the invention. […]
The cells are incubated for 1 h at room temperature and then incubated overnight in an incubator at 37° C. and 5% CO2 in a humidified atmosphere. 60 nL compound solution (10 mM DMSO stock solution) is then added using a Labcyte Echo 550 device. […] After 20 min of incubation at room temperature with shaking, 6 μL of each lysate sample is transferred to a 384-well Proxiplate and analyzed for pERK (Thr202/Tyr204) with the AlphaLISA SureFire Ultra pERK1/2 (Thr202/Tyr204) Assay Kit. 3 μL Acceptor Mix and 3 μL Donor Mix are added under subdued light and incubated for 2 h at room temperature in the dark, before the signal is measured on a PerkinElmer Envision HTS Multilabel Reader. The raw data are imported into and analyzed with the Boehringer Ingelheim proprietary software MegaLab (curve fitting based on the program PRISM, GraphPad Inc.).

[2] = Plasma protein binding assay (PPB), equilibrium dialysis; assay type: in vitro ADME; conditions: bovine, 10% FCS in PBS, read-out: PPB 10% FCS (% fu)
Method: Binding of test compounds to plasma was determined using equilibrium dialysis (ED) and quantitative mass spectrometry interfaced with liquid chromatography (LC-MS). In brief, ED was performed with dialysis devices consisting of two chambers separated by a semipermeable membrane with a molecular weight cut-off of 5-10 kg/mol. One chamber was filled with 10% FCS in PBS containing 1-10 μmol/L test compound and the other chamber was filled with phosphate-buffer saline (PBS) with or without dextran. The dialysis chamber was incubated for 3-5 hours at 37° C. After incubation, protein was precipitated from aliquots of each chamber and the concentration of test compound in the supernatant of the plasma-containing compartment (cserum) and of the buffer-containing compartment (cbuffer) was determined by LC-MS. The fraction of unbound test compound (not bound to plasma) (fu) was calculated according to the following equation: […]

KRAS G12V Ba/F3 cells = KRAS G12V Ba/F3 cells (Homo sapiens, UniProt P01116, G12V, cells depend on it); experiment: Ba/F3 proliferation assay, KRAS G12V; assay type: cell-based; conditions: 72 h, AlamarBlue, read-out: KRAS G12V Ba/F3 IC50
Chain of KRAS G12V Ba/F3 cells (P01116 whole entry G12V): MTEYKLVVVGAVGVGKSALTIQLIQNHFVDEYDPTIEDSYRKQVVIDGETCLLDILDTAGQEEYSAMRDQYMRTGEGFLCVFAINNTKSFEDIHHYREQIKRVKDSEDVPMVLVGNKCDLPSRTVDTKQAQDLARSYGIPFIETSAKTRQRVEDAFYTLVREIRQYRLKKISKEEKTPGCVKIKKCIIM
Method: as §1, §2

Caco-2 assay = assay type: in vitro ADME; conditions: human; for Papp A→B at 90 min, 10 μM: Caco-2, pH 7.4, apical to basolateral, read-out: Caco PappAB; for efflux ratio at 90 min, 10 μM: Caco-2, pH 7.4, efflux ratio PappBA/PappAB, read-out: Caco ER
Method: The assay provides information on the potential of a compound to pass the cell membrane, on the extent of oral absorption as well as on whether the compound is actively transported by uptake and/or efflux transporters. Permeability measurements across polarized, confluent Caco-2 cell monolayers grown on permeable filter supports (Corning, catalog #3391) are used. […] The receiver and donor compartments contain 0.25% bovine serum albumine (BSA) in assay buffer. […] After a pre-incubation of 25-30 min at 37° C., at predefined time points (0, 30, 60 and 90 min), samples were taken from the receiver and donor compartment, respectively. Concentrations of test compounds in samples were measured by HPLC/MS/MS, samples from the donor compartment were diluted 1:50 (v:v) with assay buffer, samples from receiver compartment were measured without dilution.
Apparent permeabilities in a-b (PappAB) and b-a (PappBA) directions are calculated according to the formula:
[formula] • Vrec [mL]: buffer volume in receiver compartment • Cdon [μmol/mL]: concentration of test compound in donor compartment at t=0 • ΔCrec: difference between concentrations of test compound in receiver compartment at start and end of incubation time • Δt: Incubation time • Vrec·ΔCrec/Δt [μmol/min]: Amount of compound transferred to receiver compartment per time • A [cm^2]: filter surface
Caco-2 efflux ratios (ER) are calculated as the ratio of PappBA/PappAB.

KRAS G12D Ba/F3 cells = KRAS G12D Ba/F3 cells (Homo sapiens, UniProt P01116, G12D, cells depend on it); experiment: Ba/F3 proliferation assay, KRAS G12D; assay type: cell-based; conditions: 72 h, AlamarBlue, read-out: KRAS G12D Ba/F3 IC50
Chain of KRAS G12D Ba/F3 cells (P01116 whole entry G12D): as the sequence (P01116 whole entry G12V) above, with V12D counted along it
Method: as §1, §2

Chain of KRAS G12C Ba/F3 cells (P01116 whole entry G12C, canonical isoform): as the sequence (P01116 whole entry G12V) above, with V12C counted along it

## C[C@H]1CN(C)CCN1c1cccc(-c2noc([C@@]3(C)CCCc4sc(N)c(C#N)c43)n2)n1 [Example V-1]
KRAS G12C Ba/F3 cells
  GI50: 1270 nM
AsPC-1 cells
  pIC50: 5.14
[1]
  pIC50: 6.60
[2]
  fraction unbound: 0.21
KRAS G12V Ba/F3 cells
  GI50: 1440 nM
Caco-2 assay
  Papp A→B at 90 min, 10 μM: 25.6 ×10⁻⁶ cm/s
  efflux ratio at 90 min, 10 μM: 0.7
KRAS G12D Ba/F3 cells
  GI50: 961 nM

## COCCCN1CCCN(c2nccc(-c3noc([C@@]4(C)CCCc5sc(N)c(C#N)c54)n3)n2)[C@@H](C)C1 [Example V-2]
KRAS G12C Ba/F3 cells
  GI50: 371 nM
[1]
  pIC50: 7.64
KRAS G12V Ba/F3 cells
  GI50: 917 nM
Caco-2 assay
  Papp A→B at 90 min, 10 μM: 26.4 ×10⁻⁶ cm/s
  efflux ratio at 90 min, 10 μM: 1.5
KRAS G12D Ba/F3 cells
  GI50: 256 nM

## C[C@H]1CNCCN1c1nccc(-c2noc([C@@]3(C)CCCc4sc(N)c(C#N)c43)n2)n1 [Example V-4]
KRAS G12C Ba/F3 cells
  GI50: 831 nM
[1]
  pIC50: 6.89
KRAS G12V Ba/F3 cells
  GI50: 1080 nM
Caco-2 assay
  Papp A→B at 90 min, 10 μM: 5 ×10⁻⁶ cm/s
  efflux ratio at 90 min, 10 μM: 9.8
KRAS G12D Ba/F3 cells
  GI50: 823 nM

## C[C@H]1CN(C)CCCN1c1nccc(-c2noc([C@@]3(C)CCCc4sc(N)c(C#N)c43)n2)n1 [Example V-5]
KRAS G12C Ba/F3 cells
  GI50: 493 nM
[1]
  pIC50: 7.42
KRAS G12V Ba/F3 cells
  GI50: 640 nM
Caco-2 assay
  Papp A→B at 90 min, 10 μM: 21.4 ×10⁻⁶ cm/s
  efflux ratio at 90 min, 10 μM: 1.7
KRAS G12D Ba/F3 cells
  GI50: 293 nM

## C[C@H]1CNCCCN1c1nccc(-c2noc([C@@]3(C)CCCc4sc(N)c(C#N)c43)n2)n1 [Example V-6]
KRAS G12C Ba/F3 cells
  GI50: 811 nM
[1]
  pIC50: 7.12
KRAS G12V Ba/F3 cells
  GI50: 1070 nM
Caco-2 assay
  Papp A→B at 90 min, 10 μM: 1.2 ×10⁻⁶ cm/s
  efflux ratio at 90 min, 10 μM: 19
KRAS G12D Ba/F3 cells
  GI50: 801 nM

## C[C@H]1CN(C)CCN1c1nccc(-c2noc([C@@]3(C)CCCc4sc(N)c(C#N)c43)n2)n1 [Example V-7]
KRAS G12C Ba/F3 cells
  GI50: 1240 nM
[1]
  pIC50: 6.86
KRAS G12V Ba/F3 cells
  GI50: 1680 nM
Caco-2 assay
  Papp A→B at 90 min, 10 μM: 32.2 ×10⁻⁶ cm/s
  efflux ratio at 90 min, 10 μM: 0.7
KRAS G12D Ba/F3 cells
  GI50: 1090 nM

## C[C@H](Oc1cccc(-c2noc([C@@]3(C)CCCc4sc(N)c(C#N)c43)n2)n1)[C@@H]1CCCN1C [Example V-8]
KRAS G12C Ba/F3 cells
  GI50: 481 nM
AsPC-1 cells
  pIC50: 5.40
[1]
  pIC50: 7.26
[2]
  fraction unbound: 0.51
KRAS G12V Ba/F3 cells
  GI50: 443 nM
Caco-2 assay
  Papp A→B at 90 min, 10 μM: 20.9 ×10⁻⁶ cm/s
  efflux ratio at 90 min, 10 μM: 1.3
KRAS G12D Ba/F3 cells
  GI50: 390 nM

## CC(C)N1CCCN(c2nccc(-c3noc([C@@]4(C)CCCc5sc(N)c(C#N)c54)n3)n2)[C@@H](C)C1 [Example V-9]
KRAS G12C Ba/F3 cells
  GI50: 64 nM
[1]
  pIC50: 7.92
KRAS G12V Ba/F3 cells
  GI50: 76 nM
Caco-2 assay
  Papp A→B at 90 min, 10 μM: 27 ×10⁻⁶ cm/s
  efflux ratio at 90 min, 10 μM: 0.9
KRAS G12D Ba/F3 cells
  GI50: 51 nM

## C[C@H](Oc1nccc(-c2noc([C@@]3(C)CCCc4sc(N)c(C#N)c43)n2)n1)[C@@H]1CCCN1C [Example V-10]
KRAS G12C Ba/F3 cells
  GI50: 291 nM
[1]
  pIC50: 7.92
KRAS G12V Ba/F3 cells
  GI50: 361 nM
Caco-2 assay
  Papp A→B at 90 min, 10 μM: 11.3 ×10⁻⁶ cm/s
  efflux ratio at 90 min, 10 μM: 3.2
KRAS G12D Ba/F3 cells
  GI50: 214 nM

## C[C@H](Oc1ccnc(-c2noc([C@@]3(C)CCCc4sc(N)c(C#N)c43)n2)n1)[C@@H]1CCCN1C [Example V-11]
AsPC-1 cells
  pIC50: 5.43
[1]
  pIC50: 8.15
[2]
  fraction unbound: 0.61
Caco-2 assay
  Papp A→B at 90 min, 10 μM: 13 ×10⁻⁶ cm/s

## C[C@H]1CN(C)CCN1c1nccc(-c2cc([C@@]3(C)CCCc4sc(N)c(C#N)c43)on2)n1 [Example V-27]
KRAS G12C Ba/F3 cells
  GI50: 1430 nM
KRAS G12V Ba/F3 cells
  GI50: 1690 nM
Caco-2 assay
  Papp A→B at 90 min, 10 μM: 14 ×10⁻⁶ cm/s
  efflux ratio at 90 min, 10 μM: 0.5
KRAS G12D Ba/F3 cells
  GI50: 525 nM

Source: patent US20250313553A1, “ANNULATED 2-AMINO-3-CYANO THIOPHENES AND DERIVATIVES FOR THE TREATMENT OF CANCER” (Boehringer Ingelheim Int'l GmbH Corp., priority 2021, published 2025)
